Laboratory results from patent US20060153844A1, “Methods to trigger, maintain and manipulate immune responses by targeted administration of biological response modifiers into lymphoid organs” (priority 2004, published 2006).

Assays:
[1] = including fatigue, malaise, fever, headache, and lymphocytopenia; cited from earlier work
[2] = tested on: p33-specific CD8+ T cells; assay: p33-specific CD8+ T cell function, intracellular interferon-γ by FACS, Imiquimod as adjuvant; type: in vivo, C57BL/6 mice; conditions: 10 μg p33, day 8
Protocol: C57BL/6 mice were immunized with the immunodominant MHC class I binding epitope of the lymphocytic choriomeninigitis virus glycoprotein, p33 (SEQ. ID. No. 11). On day 8 after immunization mice were bled to analyze p33-specific CD8+ T cell function by FACS staining of CD8, CD44 and intracellular interferon-γ production after a 4-hour in vitro stimulation with p33. All groups of mice received the same dose of 10 μg p33. The adjuvant Imiquimod, however, was administered by different routes and in different doses. Mice were either injected intralymphatically with 250 μg or 25 μg of Imiquimod, or they were injected subcutaneously with 250 μg or 25 μg of Imiquimod. Control mice were immunized with p33, but received no Imiquimod.

[3] = tested on: IFN-gamma; assay: IFN-gamma in supernatants of restimulated splenocytes after s.c. peptide in IFA; type: in vivo, mice; conditions: subcutaneous immunization in combination with IFA; compared to non-self PSMA 730-739
Protocol: Alternatively, mice were immunized with the PSMA 288-297 or PSMA 730-739 epitope peptide in IFA and peptide by subcutaneous injection (5 μg peptide in 100 μl, twice, at day 0 and 7). One week after the last administration, splenocytes were stimulated ex vivo with 5 μg (FIG. 7, top panel), 10 μg (FIG. 7, middle panel) and 20 μg/ml (FIG. 7, bottom panel) of peptide for 3 days and the IFN-gamma concentration in cell supernatants measured by ELISA.

CC(C)Cn1cnc2c(N)nc3ccccc3c21 [Imiquimod, 1-(2-methylpropyl)-1H-imidazol [4,5-c]quinolin-4-amine]
toxicity when systemically administered [1]: significant toxicity when systemically administered | induction of p33-specific CD8+ T cells ([2]; 250 μg Imiquimod intralymphatically): enhanced induction of p33-specific CD8+ T cells | induction of p33-specific CD8+ T cells ([2]; 250 μg Imiquimod subcutaneous): not after subcutaneous administration

PSMA 288-297: SEQ. ID. No. 5, self epitope conserved between mouse and human (GLPSIPVHPI; Synthetically prepared peptide sequence)
immune responsiveness (IFN-gamma) [3]: decreased immune responsiveness
